Assays:
[1] = Pharmacokinetics of compound II-19 i.p. in male ICR mice; assay type: in vivo, mouse; details: 10 mg/kg
Protocol: FIG. 11 is a graph of the pharmacokinetics of compound II-19 clearance in mouse plasma. Pharmacokinetic profile of Compound II-19 in. male ICR mice is shown. Compound II-19 was dissolved in 5% DMSO, 15% hydroxypropyl-beta-cyclodexmain, and 50 mM Tris in water to yield a nominal concentration of 5 mg/mL. This solution was administered intraperintoncally to […] male ICR mice at a dose of 10 mg/kg. Three mice in each group were used for blood, collection, at each of 8 time points: 5 minutes, 0.25 hrs, 0.5 hrs, 1 hr, 2 hrs, 4 hrs, 8 hrs, and 24 hrs postdose. Plasma samples at these time points were analyzed for the quantity of compound II-19 by standard liquid chromatography/mass spectroscopy methods.
Pharmacokinetic studies were conducted on compound II-19 to assess plasma clearance and distribution in male ICR mice. Compounds were administered i.p. (as in the xenograft study, Example 8) at 10 mg/kg. Blood samples were collected at various time points (pre-injection, 5 min, 15 min, 30 min, 1 h, 2 h, 4 h, 8 h and 24 h), and centrifuged to remove red blood cells. […] Plasma levels of drug were quantified by LC-MS (C18 column elided with linear gradient from 0% acetonitrile, 1% formic acid to 100% acetonitrile, 1% formic acid) against a set of standards prepared by diluting a known quantity of II-19 into mouse plasma.

Mcl-1 = molecular target: T1, Mcl-1 (Homo sapiens, UniProt Q07820); assay: Fluorescence polarization assay, Bim BH3 peptide binding to GST-Mcl-1
T1 construct: made in house; host or cells: E. coli
T1 sequence (Q07820 whole entry): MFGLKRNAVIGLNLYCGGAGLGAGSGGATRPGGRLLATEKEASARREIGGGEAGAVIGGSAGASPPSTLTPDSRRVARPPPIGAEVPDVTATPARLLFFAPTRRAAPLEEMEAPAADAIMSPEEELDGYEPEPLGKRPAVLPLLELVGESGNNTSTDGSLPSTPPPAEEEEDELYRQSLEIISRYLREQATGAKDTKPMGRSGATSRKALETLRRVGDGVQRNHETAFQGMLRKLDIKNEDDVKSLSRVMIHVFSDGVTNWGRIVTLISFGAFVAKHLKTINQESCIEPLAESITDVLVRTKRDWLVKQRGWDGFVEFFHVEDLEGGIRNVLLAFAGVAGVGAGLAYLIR
Text: A nineteen amino acid peptide, corresponding to the BH3 domain of Bim, with the sequence FITC-GGGIAQELRRIGDEFNAY (SEQ ID NO: 1) was labeled with the tluorophore FITC according to the manufacturer's instructions (Molecular Probes, Eugene, Oreg.). This sequence was identified as being able to bind to purified Bcl-xL protein (Sattler et al. (1997) Science 275(5302): 983-86) and to have biological activity in cells (Holinger et al. J. Biol. Chem. 274; 13298-1330).
In addition, recombinant GST -Mcl-1 and GST-Bcl-xL fusion proteins were generated in E.coli and purified using glutathione-sepharose beads using conventional techniques known to those skilled in the fields of biochemistry and molecular biology, (methods for preparation are described in Strategies for Protein Purification and Characterization, Marshak, D, Kadonga, J, Burgess R, Knuth, M, Brennan, W, Sue-Hwa, L, CSH press, Cold Spring Harbor, N.Y.). Binding of the recombinant proteins to the fluorescent Bim BH3 domain was confirmed by titration of increasing concentrations of the recombinant proteins against a constant amount of labeled Bim peptide (16.65 nM). Quantitation of binding was accomplished by FP assay with mP measurements made on the Analyst-GT reader (Molecular Devices, Sunnyvale, Calif.).
Further, the ability of compound A to disrupt the interaction between the fluorescent Bim BH3 peptide and the two fusion proteins was assessed using a fluorescence polarization assay. The Bim peptide (in solution at 4 nano-Molar) and either GST-Mcl-1 (in solution at 12.5 nM) or GST-Bcl-xL (in solution at 11.8 nM) were first combined together in phosphate buttered saline buffer, and then the compound solution in DMSO was added to final concentrations ranging from 10 μM to 0.1 nM). Normally the unbound Bim polypeptide results in polarization of 5 mP units. Upon binding of the GST-Bcl-xL and GST-Mcl-1 fusion protein, polarization increased to 100 mP units.
(§1) Experiments are performed using the fluorescence polarization assay as described in Example 2. Either Bcl-xL or Mcl-1 fusion proteins were titrated and maximum mp shift indicate binding concentrations for drug titration studies, as described in Example 2. Compound II-19, was titrated from 10 μM to 0.1 nM in 2 fold serial dilution into the peptide/protein solution. The IC50 for blocking each BH3 peptide from Mcl-1 are assessed using FP, as described in Example 2.
as §1, with “Either GST-Bcl-xL” for “Either Bcl-xL”, “or GST-Mcl-1” for “or Mcl-1”, “Compound II-20,” for “Compound II-19,”, “in 2-fold” for “in 2 fold”

NCI H929 tumors = assay: NCI H929 human myeloma xenograft model in mice; assay type: in vivo, mouse; details: vehicle 2300 mm^3
Protocol: Cell Culture: Tumor cell line NCI H929 was cultured according to ATCC recommendations in […] containing 10% fetal bovine serum and pen-strep. On the day of implantation, cells were washed 1× with phosphate buffered saline (PBS) and harvested via centrifugation. Cells were pelleted (5 min at 1000 rpm, RT) then resuspended in serum-free matrigel and kept on ice until implantation.
Tumor Cell Implantation: The cell line was implanted via subcutaneous injection on the right rear flank at a volume of 200 μl containing 3×10^7 cells per mouse; the injection site was cleaned using alcohol before and after injection to prevent any infection.
Tumor Assessment: Beginning 1 week post cell implantation all animals were weighed and tagged and tumors were measured and body weights taken 3 times weekly (length×width×height) on Monday, Wednesday, and Friday for the duration of study. Once an average tumor volume of 100-200 mm^3 was reached, animals were randomized and placed into 4 treatment groups of a minimum of 10 mice per group based on tumor size. Randomization was determined by tumor volume (length×width×height)[…] for all of the mice and average volume was calculated using a average function in Excel (Microsoft Professional).
Treatment: The study involved 4 groups of 10 animals per group. Animals in all dose groups were weighed on days of tumor measurement. All doses were administered i.p. at 10 mL/kg. The Bortezormib (1 mg/kg) group was once every 3 days for 15 days. The mice receiving vehicle and compound II-19 were dosed every second day. Compound II-19 was formulated in 1% DMSO, 10 mM Tris pH 8, 30% hydroxypropyl-beta-cyclodextrin; this vehicle was used as the “vehicle” control. Bortezomib was formulated in 30% propylene glycol, 5% Tween 80, 3.3% dextrose in water, pH 4, 1% DMSO.

time for which circulating drug levels can be sustained [1]: > 24 h
half-life ([1]; mouse, plasma, ip): > 20 h
IC50 (Mcl-1; fluorescence polarization, Bim-BH3-FITC peptide, GST-Mcl-1, read-out: IC50, inhibition of Bim-BH3 peptide binding to Mcl-1): 7 nM
preference for inhibition of Mcl-1 vs. Bcl-xL (Mcl-1; ratio of FP IC50 values): 2 fold
Structure (SMILES): COC(=O)c1ccc(O)c2nc3c(C=O)c(O)c(-c4c(O)c(C=O)c5nc6c(O)ccc(C(=O)OC)c6nc5c4O)c(O)c3nc12 [II-19, dimethyl 4,4′-diformyl-1,1′,3,3′,6,6′-hexahydroxy-[2,2′-biphenazine]-9,9′-dicarboxylate]
average tumor size at the end of the study (NCI H929 tumors; 1 mg/kg i.p. every second day): 1740 mm^3
average tumor size at the end of the study (NCI H929 tumors; 3 mg/kg i.p. every second day): 1600 mm^3

Reference: patent publication US9351971B2, “Substituted 2,2′-biphenazines for treating diseases” (Eutropics Pharmaceuticals, Inc., priority 2010, dated 2016)
